Measurements taken from patent USRE40086E1, “Method for treating bacterial infection with novel 7-substituted-9-substituted amino 6-demethyl-6-deoxytetracyclines” (Wyeth Holdings Corporation, priority 1991, dated 2008).
Structures can show the parent of a compound that is named as a salt. Where two headings read alike, the source gives them in different places.

Legend:
E. coli UBMS 90-4 (tetM) = assay: MIC, agar dilution; type: cell-based; conditions: E. coli UBMS 90-4 TetM; Table IA; unit assumed
S. mariescens FDOR 8733 = assay: MIC, agar dilution (Table IA); type: cell-based; conditions: unit assumed
E. coli J3272 TetC = assay: MIC, agar dilution (Table IA); type: cell-based; conditions: unit assumed
E. faecalis 12201 = assay: MIC, agar dilution; type: cell-based; conditions: Enterococcus 12201; Table IA; unit assumed
[1] = system: S. aureus Smith (Sensitive); assay: MIC, agar dilution; type: cell-based; conditions: S. aureus SMITH (MP); Table IA; unit assumed
E. coli MC4100 TetB = assay: MIC, agar dilution (Table IA); type: cell-based; conditions: unit assumed
[2] = system: S. aureus UBMS 88-7 (tetK); assay: MIC, agar dilution; type: cell-based; conditions: S. aureus UBMS 88-7 TetK; Table IA; unit assumed
E. coli #311 (MP) = assay: MIC, agar dilution (Table IA); type: cell-based; conditions: unit assumed
[3] = system: S. aureus UBMS 90-3 (Sensitive); assay: MIC, agar dilution; type: cell-based; conditions: S. aureus UBMS 90-3; Table IA; unit assumed
E. coli BAJ9003 = assay: MIC, agar dilution (Table IA); type: cell-based
[4] = system: S. haemolyticus AVAH 88-3; assay: MIC, agar dilution; type: cell-based; conditions: S. hemolyticus AVHAH 88-3; Table IA; unit assumed
[5] = system: E. coli UBMS 89-2 (Sensitive); assay: MIC, agar dilution; type: cell-based; conditions: E. coli UBMS 89-2 Tet Sens.; Table IA; unit assumed
S. aureus ROSE (MP) = assay: MIC, agar dilution (Table IA); type: cell-based; conditions: unit assumed
[6] = system: S. aureus ATCC 29213 (Sensitive); assay: MIC, agar dilution; type: cell-based; conditions: S. aureus ATCC 29213; Table IA; unit assumed
S. aureus NEMC 8769/89-4 = assay: MIC, agar dilution (Table IA); type: cell-based
E. coli PRP1 TetA = assay: MIC, agar dilution (Table IA); type: cell-based; conditions: unit assumed
[7] = system: S. aureus IVES 2943 (meth. resistant); assay: MIC, agar dilution; type: cell-based; conditions: S. aureus IVES 2943; Table IA; unit assumed
S. aureus SMITH (sens) [8] = assay: In vivo antibacterial evaluation, acute lethal infection in mice; conditions: Oral
From the text: In Vivo Antibacterial Evaluation (Table VII)

E. coli UBMS 90-5 = assay: MIC, agar dilution (Table IA); type: cell-based; conditions: unit assumed
E. faecalis ATCC 29212 = assay: MIC, agar dilution; type: cell-based; conditions: E. faecalis ATCC 29212; Table IA; unit assumed
[9] = system: S. aureus UBMS 90-2 (tetM); assay: MIC, agar dilution; type: cell-based; conditions: S. aureus UBMS 90-2 TetM; Table IA; unit assumed
[10] = system: Ps. acruginosa ATCC 27853; assay: MIC, agar dilution (Table IA); type: cell-based; conditions: unit assumed
[11] = system: S. aureus IVES 1983 (meth. resistant); assay: MIC, agar dilution; type: cell-based; conditions: S. aureus IVES 1983; Table IA; unit assumed
E. coli ATCC 25922 = assay: MIC, agar dilution; type: cell-based; conditions: E. coli ATCC 25922; Table IA; unit assumed
[12] = system: S. aureus UBMS 88-4 (Sensitive); assay: MIC, agar dilution; type: cell-based; conditions: S. aureus UBMS 88-4; Table IA; unit assumed
S. aureus SMITH (sens) [13] = assay: In vivo antibacterial evaluation, acute lethal infection in mice; conditions: Intraveneous
E. coli UBMS 89-1 (tetM) = assay: MIC, agar dilution; type: cell-based; conditions: E. coli UBMS 89-1 TetM; Table IA; unit assumed
E. coli UBMS 88-1 (tetB) = assay: MIC, agar dilution; type: cell-based; conditions: E. coli UBMS 88-1 TetB; Table IA; unit assumed
[14] = system: X. maltophilia NEMC 87210; assay: MIC, agar dilution (Table IA); type: cell-based; conditions: unit assumed
[15] = system: S. aureus UBMS 90-1 (tetM); assay: MIC, agar dilution; type: cell-based; conditions: S. aureus UBMS 90-1 TetM; Table IA; unit assumed
E. coli J2175 = assay: MIC, agar dilution (Table IA); type: cell-based; conditions: unit assumed
E. coli J3272 Tet sens. = assay: MIC, agar dilution (Table IA); type: cell-based; conditions: unit assumed
E. coli J3272 TetD = assay: MIC, agar dilution (Table IA); type: cell-based; conditions: unit assumed
E. coli MC4100 Tet sens. = assay: MIC, agar dilution (Table IA); type: cell-based; conditions: unit assumed
[16] = system: S. aureus UBMS 88-5 (tetM); assay: MIC, agar dilution; type: cell-based; conditions: S. aureus UBMS 88-5 TetM; Table IA; unit assumed

Compound | Antibacterial activity (MIC) (E. coli UBMS 90-4 (tetM)) | Antibacterial activity (MIC) (S. mariescens FDOR 8733) | Antibacterial activity (MIC) (E. coli J3272 TetC) | Antibacterial activity (MIC) (E. faecalis 12201) | Antibacterial activity (MIC) [1] | Antibacterial activity (MIC) (E. coli MC4100 TetB) | Antibacterial activity (MIC) [2] | Antibacterial activity (MIC) (E. coli #311 (MP)) | Antibacterial activity (MIC) [3] | Antibacterial activity (MIC) [4] | Antibacterial activity (MIC) [5] | Antibacterial activity (MIC) (S. aureus ROSE (MP)) | Antibacterial activity (MIC) [6] | Antibacterial activity (MIC) (E. coli PRP1 TetA) | Antibacterial activity (MIC) [7] | ED50 (S. aureus SMITH (sens) [8]) | Antibacterial activity (MIC) (E. coli UBMS 90-5) | Antibacterial activity (MIC) (E. faecalis ATCC 29212) | Antibacterial activity (MIC) [9] | Antibacterial activity (MIC) [10] | further results
CN(C)c1cc(NC(=O)CN2CCCC2)c(O)c2c1CC1CC3[C@H](N(C)C)C(O)=C(C(N)=O)C(=O)[C@@]3(O)C(O)=C1C2=O (stereo partly drawn) [SS, [7S-(7alpha,10aalpha)]-N-[9-(Aminocarbonyl)-4,7-bis(dimethylamino)-5,5a,6,6a,7,10,10a,12-octahydro-1,8,10a,11-tetrahydroxy-10,12-dioxo-2-naphthacenyl]-1-pyrrolidineacetamide dihydrochloride] | 0.25 µg/mL | 2 µg/mL | 0.25 µg/mL | 0.12 µg/mL | 0.12 µg/mL | 0.25 µg/mL | 0.5 µg/mL | 0.12 µg/mL | 0.12 µg/mL | 0.25 µg/mL | 0.25 µg/mL | 1 µg/mL | 0.12 µg/mL | 0.5 µg/mL | 1 µg/mL | 8 to 16 mg/kg | 0.25 µg/mL | 0.12 µg/mL | 0.12 µg/mL | 16 µg/mL | Antibacterial activity (MIC) (E. coli BAJ9003): ≦0.015; Antibacterial activity (MIC) (S. aureus NEMC 8769/89-4; unit assumed): 0.03 µg/mL; Antibacterial activity (MIC) [11]: 0.5 µg/mL; Antibacterial activity (MIC) (E. coli ATCC 25922): 0.25 µg/mL; Antibacterial activity (MIC) [12]: 0.12 µg/mL; ED50 (S. aureus SMITH (sens) [13]): 1 to 2 mg/kg; Antibacterial activity (MIC) (E. coli UBMS 89-1 (tetM)): 0.12 µg/mL; Antibacterial activity (MIC) (E. coli UBMS 88-1 (tetB)): 0.25 µg/mL; Antibacterial activity (MIC) [14]: 0.5 µg/mL; Antibacterial activity (MIC) [15]: 0.12 µg/mL; Antibacterial activity (MIC) (E. coli J2175): 0.25 µg/mL; Antibacterial activity (MIC) (E. coli J3272 Tet sens.): 0.25 µg/mL; Antibacterial activity (MIC) (E. coli J3272 TetD): 0.12 µg/mL
CN(C)c1cc(NC(=O)CNCc2ccccc2)c(O)c2c1CC1CC3C(N(C)C)C(O)=C(C(N)=O)C(=O)C3(O)C(O)=C1C2=O.Cl.Cl (stereo not drawn) [EEE, [4S-(4alpha,12aalpha)]-4,7-Bis(dimethylamino)-1,4,4a,5,5a,6,11,12a-octahydro-3,10,12,12a-tetrahydroxy-1,11-dioxo-9-[[[(phenylmethyl)amino]acetyl]amino]-2-naphthacenecarboxamide dihydrochloride] | 0.5 µg/mL | 4 µg/mL | 2 µg/mL | 0.25 µg/mL | 0.25 µg/mL | 4 µg/mL | 2 µg/mL | 0.5 µg/mL | 0.25 µg/mL | 2 µg/mL | 4 µg/mL | 8 µg/mL | 0.5 µg/mL | 4 µg/mL | 2 µg/mL | 8 to 16 mg/kg | 0.5 µg/mL | 0.25 µg/mL | 0.25 µg/mL | 32 µg/mL | Antibacterial activity (MIC) (E. coli BAJ9003; unit assumed): 0.25 µg/mL; Antibacterial activity (MIC) (S. aureus NEMC 8769/89-4; unit assumed): 0.12 µg/mL; Antibacterial activity (MIC) [11]: 2 µg/mL; Antibacterial activity (MIC) (E. coli ATCC 25922): 0.5 µg/mL; Antibacterial activity (MIC) (E. coli MC4100 Tet sens.): 0.5 µg/mL; Antibacterial activity (MIC) [12]: 0.25 µg/mL; Antibacterial activity (MIC) (E. coli UBMS 89-1 (tetM)): 0.5 µg/mL; Antibacterial activity (MIC) (E. coli UBMS 88-1 (tetB)): 2 µg/mL; Antibacterial activity (MIC) [14]: 1 µg/mL; Antibacterial activity (MIC) [15]: 0.5 µg/mL; Antibacterial activity (MIC) (E. coli J2175): 4 µg/mL; Antibacterial activity (MIC) [16]: 0.5 µg/mL; Antibacterial activity (MIC) (E. coli J3272 TetD): 0.5 µg/mL
CN(C)CC(=O)Nc1cc(N(C)C)c2c(c1O)C(=O)C1=C(O)C3(O)C(=O)C(C(N)=O)=C(O)C(N(C)C)C3CC1C2 (stereo not drawn) [LL, [4S-(4alpha,12aalpha)]-4,7-Bis(dimethylamino)-9-[[(dimethylamino)acetyl]amino]-1,4,4a,5,5a,6,11,12a-octahydro-3,10,12,12a-tetrahydroxy-1,11-dioxo-2-naphthacenecarboxamide] | 0.25 µg/mL | 2 µg/mL | 0.5 µg/mL | 0.06 µg/mL | 0.06 µg/mL | 0.25 µg/mL | 0.5 µg/mL | 0.12 µg/mL | 0.06 µg/mL | 0.12 µg/mL | 0.12 µg/mL | 1 µg/mL | 0.06 µg/mL | 1 µg/mL | 1 µg/mL | 4 to 8 mg/kg | 0.12 µg/mL | 0.06 µg/mL | 0.12 µg/mL | 4 µg/mL | Antibacterial activity (MIC) (S. aureus NEMC 8769/89-4): ≦0.015; Antibacterial activity (MIC) [11]: 1 µg/mL; Antibacterial activity (MIC) (E. coli ATCC 25922): 0.12 µg/mL; Antibacterial activity (MIC) [12]: 0.06 µg/mL; ED50 (S. aureus SMITH (sens) [13]): 0.25 to 0.5 mg/kg; Antibacterial activity (MIC) (E. coli UBMS 89-1 (tetM)): 0.12 µg/mL; Antibacterial activity (MIC) (E. coli UBMS 88-1 (tetB)): 0.25 µg/mL; Antibacterial activity (MIC) [14]: 0.25 µg/mL; Antibacterial activity (MIC) [15]: 0.12 µg/mL; Antibacterial activity (MIC) (E. coli J2175): 0.12 µg/mL; Antibacterial activity (MIC) (E. coli J3272 Tet sens.): 0.12 µg/mL; Antibacterial activity (MIC) [16]: 0.12 µg/mL; Antibacterial activity (MIC) (E. coli J3272 TetD): 0.06 µg/mL
CCCCCNCC(=O)Nc1cc(N(C)C)c2c(c1O)C(=O)C1=C(O)C3(O)C(=O)C(C(N)=O)=C(O)C(N(C)C)C3CC1C2.Cl.Cl (stereo not drawn) [DDD, [4S-(4alpha,12aalpha)]-4,7-Bis(dimethylamino)-1,4 4a,5,5a,6,11,12a-octahydro-3,10-12,12a-tetrahydroxy-1,11-dioxo-9-[[(pentylamino)acetyl]amino)-2-naphthacenecarboxamide dihydrochloride] | 0.5 µg/mL | 8 µg/mL | 0.5 µg/mL | 0.25 µg/mL | 0.25 µg/mL | 0.5 µg/mL | 2 µg/mL | 0.5 µg/mL | 0.5 µg/mL | 0.5 µg/mL | 0.5 µg/mL | 4 µg/mL | 1 µg/mL | 1 µg/mL | 4 µg/mL | 8 to 16 mg/kg | 0.5 µg/mL | 0.25 µg/mL | 0.5 µg/mL | 32 µg/mL | Antibacterial activity (MIC) (E. coli BAJ9003; unit assumed): 0.12 µg/mL; Antibacterial activity (MIC) (S. aureus NEMC 8769/89-4; unit assumed): 0.25 µg/mL; Antibacterial activity (MIC) [11]: 4 µg/mL; Antibacterial activity (MIC) (E. coli ATCC 25922): 0.5 µg/mL; Antibacterial activity (MIC) (E. coli MC4100 Tet sens.): 0.12 µg/mL; Antibacterial activity (MIC) [12]: 0.5 µg/mL; Antibacterial activity (MIC) (E. coli UBMS 89-1 (tetM)): 0.25 µg/mL; Antibacterial activity (MIC) (E. coli UBMS 88-1 (tetB)): 0.5 µg/mL; Antibacterial activity (MIC) [14]: 0.5 µg/mL; Antibacterial activity (MIC) [15]: 1 µg/mL; Antibacterial activity (MIC) (E. coli J2175): 0.5 µg/mL; Antibacterial activity (MIC) [16]: 0.5 µg/mL; Antibacterial activity (MIC) (E. coli J3272 TetD): 0.25 µg/mL
